Measured values reported in paper PMC9687021, “Bactericidal and Anti-Biofilm Activity of the FtsZ Inhibitor C109 against Acinetobacter baumannii” (Antibiotics, 2022).
pIC50: −log10 of the molar value.

Target: T1, FtsZ (Acinetobacter baumannii, UniProt A0ABX6CKC9)
T1 construct: full-length (1176 bp ftsZ gene), SUMO tag removed
Experiment: PK/LDH coupled GTPase assay on purified FtsZ; sedimentation polymerization assay
Assay type: biochemical

T1 sequence (A0ABX6CKC9 entry or part of it): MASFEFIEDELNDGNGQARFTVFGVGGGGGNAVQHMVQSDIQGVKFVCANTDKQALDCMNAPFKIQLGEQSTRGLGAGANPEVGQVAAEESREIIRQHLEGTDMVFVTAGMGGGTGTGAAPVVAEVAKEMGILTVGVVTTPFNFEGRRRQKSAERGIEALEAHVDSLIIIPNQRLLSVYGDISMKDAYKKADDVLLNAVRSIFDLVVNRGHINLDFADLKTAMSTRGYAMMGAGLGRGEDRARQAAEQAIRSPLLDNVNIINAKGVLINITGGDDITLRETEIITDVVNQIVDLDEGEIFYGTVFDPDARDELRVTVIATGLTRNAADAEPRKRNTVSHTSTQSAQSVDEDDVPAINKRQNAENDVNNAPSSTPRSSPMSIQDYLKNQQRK

COC(=O)CSc1ccc2nsnc2c1[N+](=O)[O-] [C109, methyl [(4-nitro-2,1,3-benzothiadiazol-5-yl)thio]acetate]
pIC50: 4.93
